This note sets out measurements from patent publication US20090142363A1, “CYTOTOXIC T-CELL EPITOPE PEPTIDE AND USE THEREOF” (priority 2005, published 2009).

Holding throughout (assay type): cell-based, human
Test [1] deals with peripheral blood / PBMCs / peptide-induced CTL lines of HLA-A*24 donors. Briefly: Staining of peripheral blood, PBMCs or peptide-induced CTL lines with MHC-tetramer reagents. Conditions: for staining pattern at day 10 compared to Negative Tetramer reagent: donor ID*24-8, 10 days culture with peptide; for population of CD8-positive, tetramer-positive cells in the UR: donor ID*24-2 and *24-8, FIG. 5; for specific CTLs (CD8-positive MHC-tetramer reagent-positive cells, UR): donor ID*24-2, 13 days stimulation with the peptide, then HIV peptide added, % of whole viable cells. How it is done:
MBL Co. where the present inventors are affiliated with has acquired exclusive patent licensing rights in Japan for MHC-tetramer reagents (U.S. Pat. No. 5,635,363; French Application No. FR9911133; and U.S. Pat. Nos. 5,723,584, 5,874,239, 5,932,433, and 6,265,552) from Beckman Coulter Co. Based on the patents, PE-labeled MHC-tetramer reagents were prepared using adenovirus-specific CTL epitope peptides and HLA-A*2402 molecules.
Adenovirus-specific CTLs quantification was carried out using MHC-tetramer reagents that was prepared using CTL epitope peptides of the present invention, with peripheral blood, PBMCs isolated from peripheral blood, CTL lines induced using CTL epitope peptides as samples. Examples of quantification using PE-labeled MHC-tetramer reagents are described below. Labelling dyes may be used in an appropriate combination depending on the type of flow cytometer to be used, and is not limited to the examples described below.
Ten μl of a PE-labeled MHC-tetramer reagent, 20 μl of an FITC-labeled antibody for T cell (for example, CD8, CD4, or CD3), and such were added to 200 μl of collected peripheral blood. A CD45 antibody labeled with PC5 or such may also be added to eliminate nonspecific fluorescence due to contaminated erythrocytes. After gentle mixing, the mixture was allowed to stand at room temperature for 30 minutes. OptiLyse B was added, and erythrolysis and fixation was carried out according to the manufacturer's protocol. Two ml of PBS was added, stirred, and the cells were centrifuged at 400×g for 5 minutes. After the supernatant was removed by aspiration, the cells were resuspended in 500 μl of PBS and analyzed using a flow cytometer within 24 hours.
Ten μl of a PE-labeled MHC-tetramer reagent, 20 μl of an FITC-labeled T cell surface antibody (for example, CD8, CD4, or CD3), and such were added to an appropriate amount of PBMCs (10^5 to 10^6 cells) or a CTL line induced by use of CTL epitope peptides. A CD45 antibody labeled with PC5 or such may also be added to eliminate nonspecific fluorescence due to contaminated erythrocytes. After gentle mixing, the cells were allowed to stand at room temperature for 30 minutes. Three ml of PBS was added, stirred, and the cells were centrifuged at 400×g for 5 minutes. After the supernatant was removed by aspiration, the cells were resuspended in 500 μl of PBS. When a CTL line is used, 7-AAD Viability Dye (Non-viable cell detection reagent; MBL Co.) may be added to eliminate nonspecific fluorescence caused by non-viable cells. The cells were analyzed using a flow cytometer within 24 hours.
The results of staining obtained using the five types of MHC-tetramer reagents used to prepare the peptide-induced CTL lines are shown in FIG. 5.

In test [2] the test system is CTL line induced by TYF (PBMCs from ID*24-8). As to the kind of experiment: Cross-reactivity of the TYF-induced CTL line to the subgroup C-specific CTL epitope. Particulars: PBMCs from ID*24-8 stimulated with TYF for 13 days. The source says:
As shown in FIG. 11-4, there are amino acid mutations at the fourth and sixth positions in TYF identified in the present invention as compared to the subgroup C-specific CTL epitopes. Thus, the cross-reactivity to subgroup C-specific CTL epitope ([…] (SEQ ID NO: 14); mutated amino acids are underlined) (Leen A M, Sili U, Vanin E F, Jewell A M, Xie W, Vignali D, Piedra P A, Brenner M K, Rooney C M. Conserved CTL epitopes on the adenovirus hexon protein expand subgroup cross-reactive and subgroup-specific CD8+ T cells. Blood. 104:2432-2440 (2004)) was examined using a CTL line induced by TYF.
PBMCs prepared from ID*24-8 were stimulated with TYF for 13 days, and then restimulated with TYF or […] (SEQ ID NO: 14) to examine whether the CTL line produces IFNγ.

The subject of test [3] is PBMCs of healthy adults reactive to the anti-HLA-A*24 antibody. As to the kind of experiment: Induction of specific CTLs from PBMCs, method for quantifying cells producing intracellular IFNγ. Particulars: for CD8-positive, IFNγ-positive (producing) cells in UR: restimulation with the same peptide as used in the induction, % in PBMCs. On the set-up: key to specific CTL induction, cytokine quantification method: ∘: “open circle” indicates that the use of a candidate peptide enabled specific CTLs to be induced; x: “cross” indicates that specific CTLs was unable to be induced. How it is done:
This induction method induces CTLs by adding peptides to culture media of PBMCs. Peptides are presented on antigen-presenting cells present among PBMCs, such as dendritic cells, B cells, macrophages, and certain types of T cells, whereby CTL precursor cells in PBMCs are stimulated to proliferate.
Peripheral blood collected from healthy adults that were reactive to the anti-HLA-A*24 antibody was centrifuged at 3,000 rpm for 5 to 10 minutes. The resulting supernatant plasma was collected. The non-plasma portion was processed according to a conventional method to isolate PBMCs. The characteristic of the present method is the addition of several % of plasma to an induction medium. In the present invention, a favorable result was obtained by adding 5% plasma. The medium is prepared by adding appropriate additives and antibiotics to a medium commonly used for cell culture. The CTL induction medium used in the present invention was RPMI1640 Hepes modify (Sigam) supplemented with 2-mercapotethanol, L-glutamine, and the antibiotics streptomycin and penicillin. In addition to these, insulin, transferrin, selenious acid, pyruvic acid, human serum albumin, solution of non-essential amino acids, and the like may be added. 1 to 3×10^6 PBMCs were suspended in 1 to 2.5 ml of the culture medium. A candidate peptide was added to the cells at a concentration of 1 to 20 μg/ml. The concentration of peptide can be altered depending on the solubility of the peptide. The peptide was added at 10 μg/ml. After two days, IL-2 was added at a final concentration of 20 to 100 U/ml. Round-bottomed culture dishes that allow the exchange of carbon dioxide gas are preferably used to co-culture PBMCs with peptides. In the context of the present invention, 14-ml round-bottomed polypropylene tubes (Becton Dikinson) or 96-well U-bottomed cell culture microtest plates (Becton Dikinson) were used. The adenovirus-specific CTLs were confirmed after about two and four weeks of culture. The cells were stimulated again with the peptide at 10 μg/ml after about two weeks of culture. When the induction of adenovirus-specific CTLs was confirmed, the cells were further stimulated with peptide-pulsed antigen-presenting cells to establish CTL lines.
Approximately 1/10 to all of the cells induced by the above-described method were transferred into 96-well U-bottomed cell culture microtest plates, and the peptide used for the induction was added thereto at a final concentration of 0.01 to 0.05 μg/ml. Then, an intracellular protein transport inhibitor (for example, brefeldin A, monensin, or such) was added, and the cells were cultured in a 5% CO2 incubator at 37° C. for 5 to 16 hours. After culture, the cells were washed, and phycoerythrin (PE)-labeled MHC-tetramer reagent and phycoerythrin-Cy5(PC5)-labeled CD8 antibody (Beckman Coulter) were added thereto. The resulting mixture was allowed to stand at room temperature for 15 to 30 minutes. After washing, the cells were fixed with 4% formaldehyde at 4° C. for 15 minutes and washed with an excess amount of washing solution. After membrane permeabilization treatment with 0.1% saponin, an FITC-labeled anti-IFNγ antibody (Beckman Coulter) was added, and reacted at room temperature for 15 to 30 minutes. After washing, the proportion of IFNγ-positive cells in T cells or MHC-tetramer reagent-positive cells was determined using a flow cytometer.
PBMCs derived from ten people with HLA-A*24 molecule were tested using 10 types of peptides. […] Thus, these six types of candidate epitope peptides serve as adenovirus-specific CTL epitope peptides. Since the adenovirus-specific CTL epitope peptides have the HLA-A*24-binding motif, they are likely to be HLA-A*2402-restricted epitope peptides, which are carried by 60% or more of the Japanese people. In the context of the results described above, MHC-tetramer reagents were synthesized using five types of epitope peptides, and their utility was tested.

As for “HLA-A*2402 TYFNLGNKF (Seq Id No: 4) Tetramer Reagent [TYF-Tet]”, the “staining pattern at day 10 compared to Negative Tetramer reagent” value in test [1] is listed as “clear CD8-positive, MHC-tetramer-positive pattern”. For the same substance, the “population of CD8-positive, tetramer-positive cells in the UR” value in test [1] (peptide-induced CTL lines) was “clearly detected”.

On to “HLA-A*2402 VYSGSIPYL (SEQ ID NO: 3) Tetramer Reagent [VYS-Tet]”, for which the “staining pattern at day 10 compared to Negative Tetramer reagent” value in test [1] was “clear CD8-positive, MHC-tetramer-positive pattern”. Besides, the “population of CD8-negative, tetramer reagent-positive cells in the UL” value in test [1] (peptide-induced CTL lines, FIG. 5, VYS-Tet: donor ID*24-1, *24-3, *24-11, *24-12, *24-14) is “detected”. In addition, the “population of CD8-positive, tetramer-positive cells in the UR” value in test [1] (peptide-induced CTL lines) was “clearly detected”.

In the case of “QYDPVAALF [CMV pp65, reference compound]”, in test [1], the “specific CTLs (CD8-positive MHC-tetramer reagent-positive cells, UR)” value is recorded as 28.8%.

In the case of “TYFSLNNKF (An artificially synthesized epitope peptide sequence) [reference compound]”, in test [2], the “IFNγ production of the CTL line induced by TYF on restimulation with the named peptide” value is listed as “did not produce IFNγ”. For the same substance, the “CD8-positive and TYF-Tet-positive cells” value in test [2] (restimulated with the named peptide) amounted to 1.97%.

Turning to “TYPVLEEMF [EBV BRLF1, reference compound]”, the figures for the “CD8-positive, IFNγ-positive (producing) cells in UR” value in test [3] (donor *24-8) and in test [3] (donor *24-12) were 24.9% and 9.57%, respectively. The “specific CTL induction, cytokine quantification method” value is given as “∘” in test [3] (donor ID *24-1); “∘” in test [3] (donor ID *24-2); “∘” in test [3] (donor ID *24-3); “x” in test [3] (donor ID *24-5); “∘” in test [3] (donor ID *24-8); “∘” in test [3] (donor ID *24-10). Also, the “specific CTL induction, cytokine quantification method” value in test [3] (donor ID *24-11), in test [3] (donor ID *24-12), in test [3] (donor ID *24-13) and in test [3] (donor ID *24-14) was “∘” throughout. Further, the “number of persons with peptide-specific IFNγ production / CTL induction” value in test [3] (ten persons tested) is given as “nine of ten persons”. Besides, in test [1], the “specific CTLs (CD8-positive MHC-tetramer reagent-positive cells, UR)” value was determined as 13.0%. For the same substance, the “positive rate: CD8-positive, MHC-tetramer reagent-positive cells to viable cells” value is 15.6% in test [1] (donor ID*24-8, PBMCs cultured with the epitope peptide for 10 days (day 10)) and 0.03% in test [1] (donor ID*24-8, immediately after blood collection (day 0)). The “increase of the positive rate from day 0 to day 10” value in test [1] (donor ID*24-8, ten days of culture with the peptide) is listed as “about 520 times”.
